What was measured:
[1] = system: LSK SLAM (HSCs) or MPPs; test: In vitro differentiation assay of purified LSK SLAM or MPPs in cytokine-supplemented feeder-free media; format: cell-based, mouse
[2] = system: MPPs; test: Impact of CXCL12 concentrations on lymphoid commitment of purified MPPs in vitro; format: cell-based, mouse; settings: WT MPPs, CXCL12 1 to 1,000 ng/ml at start, day 4 (FIG. 3)
Experimental: Purified MPPs were seeded at 450 cells into a 96-well tissue culture plate in DMEM medium supplemented with 10% FBS, 1% penicillin, and the following cytokines: mouse SCF (50 ng/mL), mouse IL-3 (10 ng/mL), human IL-6 (10 ng/mL), mouse IL-7 (5 ng/mL), and human Flt3 (5 ng/mL). Different concentrations of CXCL12 ranging from 1 to 1,000 ng/ml were added at the start of the culture. Cells were cultured at 37° C. in a humidified atmosphere containing 5% CO2, and were harvested after 4 days of culture to analyze HSPCs by flow cytometry.

[3] = system: circulating HSPCs
Excerpt: One hour later, peripheral blood was harvested, analyzed by flow cytometry and tested for CFU-C assays.

Compound	appearance of LMPPs ([1]; 100 ng/mL added at start of culture of MPPs, regardless of Cxcr4 genotype, less pronounced among mutant cells)	proportions and numbers of Cxcr4 1013-bearing MPPs ([1]; 100 ng/mL added at start of culture, mutant cells, days 2 and 4 (FIGS. 1 and 2))	myeloid-biased MPP2 proportions and numbers [2]	myeloid-biased MPP3 proportions and numbers [2]	proportions and absolute numbers of MPPs [2]	proportions and absolute numbers of lymphoid-biased MPP4 [2]	absolute numbers of circulating HSPCs ([3]; WT mice, single intra-peritoneal injection (5 mg/kg), one hour after injection, blood)	absolute numbers of HSPCs in the blood ([3]; mutant (Cxcr4 1013-bearing) mice, single intra-peritoneal injection, one hour, reaching that of untreated WT mice)
CXCL12: C-X-C motif chemokine 12, natural ligand of CXCR4, added to the culture medium	promoted the appearance of LMPPs	further enhanced	decrease	decrease	significant and dose-dependent increase	significant and dose-dependent increase		
c1cc(CN2CCCNCCNCCCNCC2)ccc1CN1CCCNCCNCCCNCC1 [AMD3100]							significant increase	increased

Source: patent US12129487B2, “Method to obtain lymphoid progenitors” (INSERM (Institute National de la Santé et de la Recherche …, priority 2017, dated 2024)
